Values of other authors in patent publication US11433096B2, “Ophthalmic formulation and methods of use” (priority 2020, dated 2022).

Key:
[1] = test system: opacities; conditions: in vivo
[2] = test system: diabetes-induced cataract; conditions: diabetic rats

SMILES	opacities progression and opacity score [1]	cross-linked glycation, expression of the receptor of glycated products and oxidative stress indicators in the eye lens ([2]; supplemental zinc)	progression and maturation of diabetes-induced cataract ([2]; supplemental zinc)	reduced content of total and imbalanced proportion of soluble proteins in the lens ([2]; supplemental zinc)	concentration of heat shock protein in the eye lens, specifically α-crystallin ([2]; zinc supplementation)	elevated activity and expression of polyol pathway enzymes and molecules in the lens ([2]; zinc supplementation)
O=S(=O)([O-])[O-].[Zn+2] [Zinc Sulfate]	retard opacities progression and lowering the opacity score					
[Zn] [zinc]		alleviated	alleviated	effective in preventing	induced	counteracted
